# Reference: patent US20020137929A1, “1 - (3-heterocyclylphenyl) isothiourea, -isourea, -guanidine and -amidine herbicidal agents” (Intellectual Property Department, BASF Aktiengesellschaft, priority 1998, published 2002)
# Columns and labels:
# [1] = tested on: AMBEL (Ragweed, Common); experiment: Postemergence herbicidal evaluation; type: in vivo, Ambrosia artemisifolia; details: postemergence
# Outline: (§1)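 First, seedlings were raised for around two weeks. Next, test material in 50/50 acetone/water containing 0.5% TWEEN 20 was sprayed through a nozzle at 40 psi, equivalent to about 0.0156–0.500 kg/ha. Finally, after 4–5 weeks in the greenhouse, plants were rated 0–9.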
# [2] = tested on: IPOHE (Morningglory, Ivyleaf); experiment: Postemergence herbicidal evaluation; type: in vivo, Ipomoea hederacea; details: postemergence
# Outline: as §1
# [3] = tested on: GLXMAW (Soybean, Williams); experiment: Postemergence herbicidal evaluation; type: in vivo, Glycine max, (L.) Merr. cv Williams; details: postemergence
# Outline: as §1
# [4] = tested on: ZEAMX (Corn, Field); experiment: Postemergence herbicidal evaluation; type: in vivo, Zea mays; details: postemergence
# Outline: as §1
# [5] = tested on: ABUTH (Velvetleaf); experiment: Preemergence herbicidal evaluation; type: in vivo, Abutilon theophrasti; details: rated 4-5 weeks after treatment
# Outline: (§2)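 Visual 0-9 rating vs control (stand, vigor, malformation, size, chlorosis, overall appearance), scored 4-5 wk after spraying. Seeded soil cups were treated preemergence with compound in aqueous acetone, ~0.0156-0.500 kg/ha equivalent.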
# [6] = tested on: AMBEL (Ragweed, Common); experiment: Preemergence herbicidal evaluation; type: in vivo, Ambrosia artemisifolia; details: rated 4-5 weeks after treatment
# Outline: as §2
# [7] = tested on: CASOB (Sicklepod); experiment: Preemergence herbicidal evaluation; type: in vivo, Cassia obtusifolia; details: rated 4-5 weeks after treatment
# Outline: as §2
# [8] = tested on: GALAP (Galium); experiment: Preemergence herbicidal evaluation; type: in vivo, Galium aparine; details: rated 4-5 weeks after treatment
# Outline: as §2
# [9] = tested on: ECHCG (Barnyardgrass); experiment: Preemergence herbicidal evaluation; type: in vivo, Echinochloa crus-galli; details: rated 4-5 weeks after treatment
# Outline: as §2
# [10] = tested on: SETVI (Foxtail, Green); experiment: Preemergence herbicidal evaluation; type: in vivo, Setaria viridis; details: rated 4-5 weeks after treatment
# Outline: as §2
# [11] = tested on: GLXMAW (Soybean, Williams); experiment: Preemergence herbicidal evaluation; type: in vivo, Glycine max, (L.) Merr. cv Williams; details: rated 4-5 weeks after treatment
# Outline: as §2
# [12] = tested on: CYPSE (Flatsedge); experiment: Preemergence weed control under flooded paddy conditions; type: in vivo, Cyperus serotinus; details: rated 3-4 weeks after treatment
# Outline: (§3)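 Seeds or propagules sown in silt loam kept flooded 1.5-3 cm; compounds in 50/50 acetone/water pipetted into flood water at about 0.0313 to 0.500 kg/ha. Greenhouse; visual 0-9 rating versus untreated control 3-4 weeks after treatment.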
# [13] = tested on: SAGPY (Arrowhead (Pygmaea)); experiment: as above; type: in vivo, Sagittaria pygmaea; details: rated 3-4 weeks after treatment
# Outline: as §3
# [14] = tested on: ECHORC (Watergrass (Calif.)); experiment: Postemergence weed control under flooded paddy conditions; type: in vivo, Echinochloa oryzoides; details: postemergence weeds, rated 3 to 4 weeks after treatment
# Outline: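 Injury ratings (0–9 scale covering stand, vigor, malformation, size, chlorosis and overall appearance versus control) were made three to four weeks after treatment. Test material, about 0.0313 to 0.500 kg/ha a.i. in 50/50 v/v aqueous/acetone, was added to flood water 1.5 to 3 cm deep over 3 to 5 cm weeds and 1.5 to 2.5 leaf rice.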
compound,measurement,setting,value
"CCOC(=O)C(c1ccc(Cl)cc1)N1C(=O)CSC1=Nc1cc(-n2c(=O)cc(C(F)(F)F)n(C)c2=O)c(F)cc1Cl (racemic) [Compound 79, Ethyl α-(p-chlorophenyl)-2-{{2-chloro-5-[3,6-dihydro-3-methyl-2,6-dioxo-4-(trifluoromethyl)-1(2H)-pyrimidinyl]-4-fluorophenyl}imino}-4-oxo-3-thiazolidineacetate, DL-]",AMBEL herbicidal rating,[1]; rate 0.0158 kg/ha,6.0
same,AMBEL herbicidal rating,[1]; rate 0.0315 kg/ha,7.0
same,AMBEL herbicidal rating,[1]; rate 0.0630 kg/ha,9.0
same,IPOHE herbicidal rating,[2]; rate 0.0158 kg/ha,9.0
same,IPOHE herbicidal rating,[2]; rate 0.0315 kg/ha,9.0
same,IPOHE herbicidal rating,[2]; rate 0.0630 kg/ha,9.0
same,GLXMAW herbicidal rating,[3]; rate 0.0158 kg/ha,4.5
same,GLXMAW herbicidal rating,[3]; rate 0.0315 kg/ha,5.0
same,GLXMAW herbicidal rating,[3]; rate 0.0630 kg/ha,5.0
same,ZEAMX herbicidal rating,[4]; rate 0.0158 kg/ha,5.0
same,ZEAMX herbicidal rating,[4]; rate 0.0315 kg/ha,4.5
same,ZEAMX herbicidal rating,[4]; rate 0.0630 kg/ha,5.0
same,Preemergence herbicidal rating ABUTH,[5]; rate 0.0313 kg/ha,0.0
same,Preemergence herbicidal rating ABUTH,[5]; rate 0.0625 kg/ha,2.0
same,Preemergence herbicidal rating ABUTH,[5]; rate 0.1250 kg/ha,6.0
same,Preemergence herbicidal rating ABUTH,[5]; rate 0.2500 kg/ha,9.0
same,Preemergence herbicidal rating AMBEL,[6]; rate 0.0313 kg/ha,1.0
same,Preemergence herbicidal rating AMBEL,[6]; rate 0.0625 kg/ha,3.0
same,Preemergence herbicidal rating AMBEL,[6]; rate 0.1250 kg/ha,1.0
same,Preemergence herbicidal rating AMBEL,[6]; rate 0.2500 kg/ha,8.0
same,Preemergence herbicidal rating CASOB,[7]; rate 0.0313 kg/ha,1.0
same,Preemergence herbicidal rating CASOB,[7]; rate 0.0625 kg/ha,0.0
same,Preemergence herbicidal rating CASOB,[7]; rate 0.1250 kg/ha,0.0
same,Preemergence herbicidal rating CASOB,[7]; rate 0.2500 kg/ha,1.0
same,Preemergence herbicidal rating GALAP,[8]; rate 0.0313 kg/ha,0.0
same,Preemergence herbicidal rating GALAP,[8]; rate 0.0625 kg/ha,0.0
same,Preemergence herbicidal rating GALAP,[8]; rate 0.1250 kg/ha,0.0
same,Preemergence herbicidal rating GALAP,[8]; rate 0.2500 kg/ha,0.0
same,Preemergence herbicidal rating ECHCG,[9]; rate 0.0313 kg/ha,0.0
same,Preemergence herbicidal rating ECHCG,[9]; rate 0.0625 kg/ha,0.0
same,Preemergence herbicidal rating ECHCG,[9]; rate 0.1250 kg/ha,0.0
same,Preemergence herbicidal rating ECHCG,[9]; rate 0.2500 kg/ha,0.0
same,Preemergence herbicidal rating SETVI,[10]; rate 0.0313 kg/ha,1.0
same,Preemergence herbicidal rating SETVI,[10]; rate 0.0625 kg/ha,1.0
same,Preemergence herbicidal rating SETVI,[10]; rate 0.1250 kg/ha,1.0
same,Preemergence herbicidal rating SETVI,[10]; rate 0.2500 kg/ha,4.0
same,Preemergence herbicidal rating GLXMAW,[11]; rate 0.0313 kg/ha,1.0
same,Preemergence herbicidal rating GLXMAW,[11]; rate 0.0625 kg/ha,1.0
same,Preemergence herbicidal rating GLXMAW,[11]; rate 0.1250 kg/ha,0.0
same,Preemergence herbicidal rating GLXMAW,[11]; rate 0.2500 kg/ha,2.0
same,CYPSE herbicidal effect rating,[12]; 0.0313 kg/ha,0.0
same,CYPSE herbicidal effect rating,[12]; 0.0625 kg/ha,0.0
same,CYPSE herbicidal effect rating,[12]; 0.1250 kg/ha,0.0
same,CYPSE herbicidal effect rating,[12]; 0.2500 kg/ha,9.0
same,SAGPY herbicidal effect rating,[13]; 0.0313 kg/ha,0.0
same,SAGPY herbicidal effect rating,[13]; 0.0625 kg/ha,0.0
same,SAGPY herbicidal effect rating,[13]; 0.1250 kg/ha,4.0
same,SAGPY herbicidal effect rating,[13]; 0.2500 kg/ha,4.0
same,Herbicidal rating ECHORC,[14]; Rate 0.0313 kg/ha,5.0
same,Herbicidal rating ECHORC,[14]; Rate 0.0625 kg/ha,6.0
same,Herbicidal rating ECHORC,[14]; Rate 0.1250 kg/ha,7.0
same,Herbicidal rating ECHORC,[14]; Rate 0.2500 kg/ha,8.0
"Cn1c(C(F)(F)F)cc(=O)n(-c2cc(N=C3SCC(=O)N3[C@H](Cc3ccccc3)C(=O)O)c(Cl)cc2F)c1=O [Compound 69, α-Benzyl-2-{{2-chloro-5-[3,6-dihydro-3-methyl-2,6-dioxo-4-(trifluoromethyl)-1(2H)-pyrimidinyl]-4-fluorophenyl}imino}-4-oxo-3-thiazolidineacetic acid, D-]",AMBEL herbicidal rating,[1]; rate 0.0158 kg/ha,9.0
same,AMBEL herbicidal rating,[1]; rate 0.0315 kg/ha,9.0
same,AMBEL herbicidal rating,[1]; rate 0.0630 kg/ha,9.0
same,IPOHE herbicidal rating,[2]; rate 0.0158 kg/ha,9.0
same,IPOHE herbicidal rating,[2]; rate 0.0315 kg/ha,9.0
same,IPOHE herbicidal rating,[2]; rate 0.0630 kg/ha,9.0
same,GLXMAW herbicidal rating,[3]; rate 0.0158 kg/ha,5.5
same,GLXMAW herbicidal rating,[3]; rate 0.0315 kg/ha,6.0
same,GLXMAW herbicidal rating,[3]; rate 0.0630 kg/ha,6.0
same,ZEAMX herbicidal rating,[4]; rate 0.0158 kg/ha,4.5
same,ZEAMX herbicidal rating,[4]; rate 0.0315 kg/ha,4.5
same,ZEAMX herbicidal rating,[4]; rate 0.0630 kg/ha,5.5
same,Preemergence herbicidal rating ABUTH,[5]; rate 0.0156 kg/ha,0.0
same,Preemergence herbicidal rating ABUTH,[5]; rate 0.0313 kg/ha,0.0
same,Preemergence herbicidal rating ABUTH,[5]; rate 0.0625 kg/ha,9.0
same,Preemergence herbicidal rating ABUTH,[5]; rate 0.1250 kg/ha,9.0
same,Preemergence herbicidal rating ABUTH,[5]; rate 0.2500 kg/ha,9.0
same,Preemergence herbicidal rating AMBEL,[6]; rate 0.0156 kg/ha,0.0
same,Preemergence herbicidal rating AMBEL,[6]; rate 0.0313 kg/ha,4.0
same,Preemergence herbicidal rating AMBEL,[6]; rate 0.0625 kg/ha,5.0
same,Preemergence herbicidal rating AMBEL,[6]; rate 0.1250 kg/ha,9.0
same,Preemergence herbicidal rating AMBEL,[6]; rate 0.2500 kg/ha,7.0
same,Preemergence herbicidal rating CASOB,[7]; rate 0.0156 kg/ha,0.0
same,Preemergence herbicidal rating CASOB,[7]; rate 0.0313 kg/ha,0.0
same,Preemergence herbicidal rating CASOB,[7]; rate 0.0625 kg/ha,0.0
same,Preemergence herbicidal rating CASOB,[7]; rate 0.1250 kg/ha,1.0
same,Preemergence herbicidal rating CASOB,[7]; rate 0.2500 kg/ha,5.0
same,Preemergence herbicidal rating GALAP,[8]; rate 0.0156 kg/ha,0.0
same,Preemergence herbicidal rating GALAP,[8]; rate 0.0313 kg/ha,0.0
same,Preemergence herbicidal rating GALAP,[8]; rate 0.0625 kg/ha,0.0
same,Preemergence herbicidal rating GALAP,[8]; rate 0.1250 kg/ha,1.0
same,Preemergence herbicidal rating GALAP,[8]; rate 0.2500 kg/ha,1.0
same,Preemergence herbicidal rating ECHCG,[9]; rate 0.0156 kg/ha,0.0
same,Preemergence herbicidal rating ECHCG,[9]; rate 0.0313 kg/ha,0.0
same,Preemergence herbicidal rating ECHCG,[9]; rate 0.0625 kg/ha,0.0
same,Preemergence herbicidal rating ECHCG,[9]; rate 0.1250 kg/ha,1.0
same,Preemergence herbicidal rating ECHCG,[9]; rate 0.2500 kg/ha,3.0
same,Preemergence herbicidal rating SETVI,[10]; rate 0.0156 kg/ha,0.0
same,Preemergence herbicidal rating SETVI,[10]; rate 0.0313 kg/ha,0.0
same,Preemergence herbicidal rating SETVI,[10]; rate 0.0625 kg/ha,0.0
same,Preemergence herbicidal rating SETVI,[10]; rate 0.1250 kg/ha,4.0
same,Preemergence herbicidal rating SETVI,[10]; rate 0.2500 kg/ha,7.0
same,Preemergence herbicidal rating GLXMAW,[11]; rate 0.0156 kg/ha,1.0
same,Preemergence herbicidal rating GLXMAW,[11]; rate 0.0313 kg/ha,0.0
same,Preemergence herbicidal rating GLXMAW,[11]; rate 0.0625 kg/ha,0.0
same,Preemergence herbicidal rating GLXMAW,[11]; rate 0.1250 kg/ha,1.0
same,Preemergence herbicidal rating GLXMAW,[11]; rate 0.2500 kg/ha,2.0
same,CYPSE herbicidal effect rating,[12]; 0.0313 kg/ha,3.0
same,CYPSE herbicidal effect rating,[12]; 0.0625 kg/ha,3.0
same,CYPSE herbicidal effect rating,[12]; 0.1250 kg/ha,9.0
same,CYPSE herbicidal effect rating,[12]; 0.2500 kg/ha,9.0
same,SAGPY herbicidal effect rating,[13]; 0.0313 kg/ha,0.0
same,SAGPY herbicidal effect rating,[13]; 0.0625 kg/ha,0.0
same,SAGPY herbicidal effect rating,[13]; 0.1250 kg/ha,3.0
same,SAGPY herbicidal effect rating,[13]; 0.2500 kg/ha,3.0
same,Herbicidal rating ECHORC,[14]; Rate 0.0313 kg/ha,0.0
same,Herbicidal rating ECHORC,[14]; Rate 0.0625 kg/ha,4.0
same,Herbicidal rating ECHORC,[14]; Rate 0.1250 kg/ha,5.0
same,Herbicidal rating ECHORC,[14]; Rate 0.2500 kg/ha,7.0
